Source: ChEMBL document CHEMBL2331425, “Triazolo and imidazo dihydropyrazolopyrimidine potassium channel antagonists” (Bioorg Med Chem Lett, 2013)

Target: T1, Potassium voltage-gated channel subfamily A member 5 (Homo sapiens, UniProt P22460)
T1 sequence (P22460 whole entry): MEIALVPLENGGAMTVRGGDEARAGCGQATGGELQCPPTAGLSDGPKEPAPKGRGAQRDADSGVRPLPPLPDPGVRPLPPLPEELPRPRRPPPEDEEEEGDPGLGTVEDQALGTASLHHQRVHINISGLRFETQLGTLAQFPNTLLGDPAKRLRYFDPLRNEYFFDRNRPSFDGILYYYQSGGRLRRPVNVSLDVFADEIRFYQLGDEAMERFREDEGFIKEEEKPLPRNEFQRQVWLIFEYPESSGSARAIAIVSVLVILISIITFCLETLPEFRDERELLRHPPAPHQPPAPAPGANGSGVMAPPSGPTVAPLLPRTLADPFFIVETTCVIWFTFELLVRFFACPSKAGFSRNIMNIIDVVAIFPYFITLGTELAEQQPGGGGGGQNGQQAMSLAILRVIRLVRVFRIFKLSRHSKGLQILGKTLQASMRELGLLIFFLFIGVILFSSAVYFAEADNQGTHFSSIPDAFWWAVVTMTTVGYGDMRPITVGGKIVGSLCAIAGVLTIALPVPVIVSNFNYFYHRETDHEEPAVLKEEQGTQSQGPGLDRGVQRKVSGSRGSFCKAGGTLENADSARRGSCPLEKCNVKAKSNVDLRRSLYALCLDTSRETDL
Experiment: Antagonist activity at human Kv1.5 expressed in mouse L929 cells assessed as inhibition of delayed rectifier repolarization current by patch clamp assay
Format: cell-based
Conditions: not given
For `CC1=C(c2ncnn2C2CCC2)[C@@H](c2ccc(Cl)c(Cl)c2)n2nc(C(C)(C)C)cc2N1`, the IC50 was 283 nM.
Work on `CC1=C(c2ncnn2CCCC(F)(F)F)[C@@H](c2ccc(Cl)c(Cl)c2)n2nccc2N1` yielded an IC50 of 103 nM.
`CC1=C(c2ncnn2CC2CC2)[C@@H](c2ccc(Cl)c(Cl)c2)n2nccc2N1` showed an IC50 of 229 nM.
In the case of `CC1=C(c2nccn2C(C)C)[C@@H](c2ccc(Cl)c(Cl)c2)n2nc(C(F)(F)F)cc2N1`, the IC50 is reported as 204 nM.
With `CC1=C(c2ncnn2C2CCC2)[C@@H](c2ccc(Cl)c(Cl)c2)n2nccc2N1` the IC50 was 48 nM.
Compound `CCCn1ncnc1C1=C(C)Nc2ccnn2[C@@H]1c1ccc(Cl)c(Cl)c1` has an IC50 of 102 nM.
In the case of `CC1=C(c2ncnn2-c2ccc(F)cc2)[C@@H](c2ccc(Cl)c(Cl)c2)n2nccc2N1`, the IC50 is reported as 115 nM.
`CC1=C(c2ncnn2C(C)(C)C)[C@@H](c2ccc(Cl)c(Cl)c2)n2nccc2N1` gave an IC50 of 223 nM.
For `CC1=C(c2ncnn2-c2cccc(C(F)(F)F)n2)[C@@H](c2ccc(Cl)c(Cl)c2)n2nc(C(F)(F)F)cc2N1`, the IC50 was 96 nM.
`CC1=C(c2ncnn2CCC(F)(F)F)[C@@H](c2ccc(Cl)c(Cl)c2)n2nccc2N1` showed an IC50 of 151 nM.
In the case of `CC1=C(c2ncnn2-c2cccc(F)c2)[C@@H](c2ccc(Cl)c(Cl)c2)n2nccc2N1`, the IC50 is reported as 97 nM.
In the case of `CC1=C(c2ncnn2-c2cccc(C)n2)[C@@H](c2ccc(Cl)c(Cl)c2)n2nc(C(F)(F)F)cc2N1`, the IC50 is reported as 211 nM.

Target: T1, Potassium voltage-gated channel subfamily A member 5
Experiment: Antagonist activity at human Kv1.5 expressed in mouse L929 cells assessed as inhibition of delayed rectifier repolarization current at 0.3 uM by patch clamp assay relative to control
Format: cell-based
Conditions: not given
With `COCc1cc2n(n1)[C@H](c1ccc(Cl)c(Cl)c1)C(c1ncnn1C1CCC1)=C(C)N2` the inhibition was 25%.
`CC1=C(c2ncnn2-c2ccc(C)cc2)[C@@H](c2ccc(Cl)c(Cl)c2)n2nc(C)cc2N1` showed an inhibition of 25%.
In the case of `CC1=C(c2ncnn2CCO)[C@@H](c2ccc(Cl)c(Cl)c2)n2nccc2N1`, the inhibition is reported as 6%.
Work on `CC1=C(c2ncn(-c3ccccc3F)n2)[C@@H](c2ccc(Cl)c(Cl)c2)n2nc(C)cc2N1` yielded an inhibition of 23%.
Compound `CC1=C(c2ncn[nH]2)[C@@H](c2ccc(Cl)c(Cl)c2)n2nccc2N1` has an inhibition of 8%.
Work on `COc1cccc(-n2cnc(C3=C(C)Nc4cc(C)nn4[C@@H]3c3ccc(Cl)c(Cl)c3)n2)c1` yielded an inhibition of 14%.
With `CC1=C(c2ncnn2-c2ccccn2)[C@@H](c2ccc(Cl)c(Cl)c2)n2nc(C(F)(F)F)cc2N1` the inhibition was 11%.
For `COc1ccc(-n2cnc(C3=C(C)Nc4cc(C)nn4[C@@H]3c3ccc(Cl)c(Cl)c3)n2)cc1`, the inhibition was 5%.
With `COc1ccccc1-n1cnc(C2=C(C)Nc3cc(C)nn3[C@@H]2c2ccc(Cl)c(Cl)c2)n1` the inhibition was 4%.
Work on `CC1=C(c2ncn(-c3ccc(C)cc3)n2)[C@@H](c2ccc(Cl)c(Cl)c2)n2nc(C)cc2N1` yielded an inhibition of 14%.

Test system: not listed separately
Experiment: Clearance in Sprague-Dawley rat at 1 mg/kg, iv
Format: ADME, organism-based
Parameters: dose 1 mg/kg, route intravenous
Conditions: in vivo
For `CC1=C(C(=O)N2CCN(c3ccc(F)cc3)CC2)[C@@H](c2ccc(Cl)c(Cl)c2)n2nccc2N1`, the clearance was 134 mL/min/kg.
In the case of `CC1=C(c2nccn2C(C)C)[C@@H](c2ccc(Cl)c(Cl)c2)n2nc(C(F)(F)F)cc2N1`, the clearance is reported as 63 mL/min/kg.

Test system: not listed separately
Experiment: Half life in Sprague-Dawley rat at 1 mg/kg, iv
Format: ADME, organism-based
Parameters: dose 1 mg/kg, route intravenous
Conditions: in vivo
In the case of `CC1=C(C(=O)N2CCN(c3ccc(F)cc3)CC2)[C@@H](c2ccc(Cl)c(Cl)c2)n2nccc2N1`, the half-life is reported as 36 min.
For `CC1=C(c2nccn2C(C)C)[C@@H](c2ccc(Cl)c(Cl)c2)n2nc(C(F)(F)F)cc2N1`, the half-life was 54 min.

Target: T2, Nuclear receptor subfamily 1 group I member 2 (Homo sapiens, UniProt O75469)
T2 sequence (O75469 whole entry): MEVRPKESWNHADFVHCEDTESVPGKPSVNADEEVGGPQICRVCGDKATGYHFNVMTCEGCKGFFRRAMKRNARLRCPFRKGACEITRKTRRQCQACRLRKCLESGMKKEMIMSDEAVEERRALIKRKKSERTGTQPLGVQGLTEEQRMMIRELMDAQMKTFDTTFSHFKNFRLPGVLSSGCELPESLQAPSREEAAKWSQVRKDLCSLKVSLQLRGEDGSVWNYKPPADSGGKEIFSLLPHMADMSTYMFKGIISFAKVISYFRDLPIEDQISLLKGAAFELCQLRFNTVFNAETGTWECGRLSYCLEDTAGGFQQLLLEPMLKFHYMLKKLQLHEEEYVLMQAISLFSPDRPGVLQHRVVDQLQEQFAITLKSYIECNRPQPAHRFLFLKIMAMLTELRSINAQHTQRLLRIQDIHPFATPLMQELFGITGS
Experiment: Transactivation of PXR (unknown origin)
Conditions: not given
Work on `CC1=C(c2nccn2C(C)C)[C@@H](c2ccc(Cl)c(Cl)c2)n2nc(C(F)(F)F)cc2N1` yielded an EC20 of 110 nM.
Work on `CC1=C(c2ncnn2-c2cccc(C(F)(F)F)n2)[C@@H](c2ccc(Cl)c(Cl)c2)n2nc(C(F)(F)F)cc2N1` yielded an EC20 of 140 nM.
Work on `CC1=C(c2ncnn2-c2cccc(C)n2)[C@@H](c2ccc(Cl)c(Cl)c2)n2nc(C(F)(F)F)cc2N1` yielded an EC20 of 440 nM.
